Reference: patent publication US10390536B2, “Methods, compounds and compositions for repelling insects and/or arachnids” (National Center for Scientific Research “Demokritos”, priority 2013, dated 2019)

What was measured:
[1] = system: sand fly Lutzomyia longipalpis; assay: warm body repellence assay with sand flies; assay type: in vivo; conditions: for Median of landings: 2 minutes, control 48
Experimental: To test the effects of repellent compounds or compositions disclosed herein on other blood-feeding arthropods, a warm body repellence assay (Krober et. al. (2010). An In Vitro Assay for Testing Mosquito Repellents Employing a Warm Body and Carbon Dioxide as a Behavioral Activator. Journal of the American Mosquito Control Association 26(4): 381-386] was conducted using the sand fly Lutzomyia longipalpis (Diptera: Psychodidae), the principal vector of Leishmania (or leismaniasis) in the Americas.
[…] Fifty L. longipalpis sandflies (male:female ratio 1:1) of 3-7 days old were tested during the scotophase under conditions described for A. gambiae in Example 6. The test cages were lined with filter paper. Reduction in the number of landings by L. longipalpis sand fly females on a warm body treated with different test products compared to the control with solvent (ethanol p.a.) alone was used to evaluate repellence. Tests were conducted in complete darkness using IR LEDs to illuminate the warm body. Landings counted during 2 minutes were normalized by experimental day, cage, and number of females by a mixed linear model before testing for differences.

A. gambiae females = assay: wind tunnel spatial repellence (landings on treated netting downwind of dirty sock); assay type: in vivo, Anopheles gambiae; conditions: for inhibition of landing on treated netting (in words): 38 or 57 μg DEET/cm^2, 38 or 76 μg carvacrol/cm^2; for Mean Landings/5 minutes: control 24.6
Experimental: Carvacrol was tested in a wind tunnel (60×60×120 cm) in order to test for inhibition of the attractiveness of dirty socks, which are otherwise very attractive to the malaria mosquito A. gambiae. Experiments were conducted at 25° C. and 80% relative humidity at a wind speed of 0.5 m·s^−1 during the last 6 hours of scotophase. Dim fluorescent light (4 Lux) was provided from above (Philips TLD, 32 Watts at 36 KHz). A tube (55 mm inner diameter) was covered at its downwind end with mosquito netting which was treated with 38 or 57 μg DEET/cm^2 or 38 or 76 μg carvacrol/cm^2 or the solvent (ethanol) alone (control). Groups of 30 A. gambiae females were released from a release cage at the downwind end of the wind tunnel and their landing behaviour on the mosquito netting was recorded with a high definition video camera. The number of mosquitoes landing on the mosquito netting over 5 minutes was counted.

[2] = system: female A. gambiae antennae; assay: GC-coupled electroantennogram (GC-EAG) recording; set-up: species or system Anopheles gambiae; conditions: compounds eluting from GC of essential oils
From the text: Electrophysiological recordings from whole mosquito antenna: Coupling EAG recordings from an A. gambiae antenna to the effluent of a high-resolution gas chromatographic (GC) column permitted the determination of the elution profiles of biologically active components of essential oils showing repellence. Recordings were made from to 4-9 day-old female mosquitoes. The head was excised at the occipital opening and placed on the reference glass electrode containing Hayes mosquito Ringer [Hayes (1953). Determination of a physiological saline for Aedes aegypti (L.). J Econ Entomol 46: 624-627] mounted in a humidified air-stream (90-98% RH; Guerin and Visser (1980). Electroantennogram Responses of the Carrot Fly, Psila rosae, to Volatile Plant Components. Physiological Entomology 5(2): 111-119] and its antenna exposed to compounds eluting from the GC column (Biessamann et al. (2010). The Anopheles gambiae odorant binding protein 1 (AgamOBP1) mediates indole recognition in the antennae of female mosquitoes. PLoS One 5(3): e9471]. The EAG response was recorded via a glass electrode filled with Kaissling sensillum lymph Ringer [Kaissling (1995). Single unit and electroantennogram recordings in insect olfactory organs. In Experimental Cell Biology of Taste and Olfaction. Current Techniques and Protocols, Spielman AlaB, J. G. (ed), 361-386. Boca Raton, Fla.: CRC Press] brought into contact with the terminal antennal segment whose tip was cut off. Only antennae showing an EAG response at least double the noise level to a 1 ml puff of air over 1 μg geranylacetone in a 5 ml stimulus syringe were used for recording EAG responses to the essential oils.
To conduct a GC-EAG analysis, about 2 μg of an essential oil was injected in 1-3 μL of dichloromethane (DCM) onto an apolar capillary column (95% dimethyl polysiloxan with 5% diphenyl polysiloxan, 15 m long, 0.25 mm i.d., 0.10 μm film thickness; BGB Analytik, Switzerland) installed in a 5300 Carlo Erba Instruments chromatograph. Hydrogen was used as carrier gas with the oven held at 40° C. for 3 minutes then heated up 25° C./min to 230° C. and held at the final temperature for 15 min. The column effluent was split (50:50) between the flame ionization detector (FID) of the chromatograph and the mosquito antennal preparation. The EAG signal was fed into an AC/DC amplifier (×100) via a high impedance preamplifier (×10), recorded on the hard disk of a PC via a 16-bit analogue-digital IDAC4 interface (Syntech, Netherlands) and monitored simultaneously with an oscilloscope (Tektronix 5103, USA). Kovats retention indices (KIs) were calculated for the EAG-active compounds present in the extracts and fractions. FIG. 1 illustrates the results obtained using the GC-EAG analysis. […]

[3] = system: Ixodes ricinus (Ixodidae) nymphs; assay: tick repellence assay on warm glass plate; assay type: in vivo; conditions: 10 μg/cm^2; nymphs dropped off or walked down the warm glass plate; control 8
Experimental: The products were tested at a dose of 10 μg/cm^2 on Ixodes ricinus (Ixodidae) nymphs according the protocol described in Krober, T. et al. (2013). A standardised in vivo and in vitro test method for evaluating tick repellents. Pesticide Biochemistry and Physiology 107: 160-168] with the following modifications: The test products (dissolved in ethanol) were allowed to evaporate for 40 s (as in the warm body test with mosquitoes) and the warm glass plates were used up to 250 s after application of the test products for the repellence assay. Four repetitions were made with carvacrol with 3, 4, 4 and 5 nymphs, i.e. with a total of 16 I. ricinus nymphs, of which in total 75% (12) were affected in that they either dropped off or walked down the warm glass plate.
The mixture of carvacrol+cumin alcohol+butyl-cinnamate was tested in two repetitions with 6 and 7 nymphs, i.e. with a total of 13 I. ricinus nymphs, of which 100% were affected in that they either dropped off or walked down the warm glass plate. Of 12 Ixodes ricinus tested in the control (ethanol only) only one tick (8%) was affected (Table 8).

[4] = netting treated with 38 μg/cm^2

SMILES | Median of landings ([1]; 20 nmol/cm^2) | Median of landings ([1]; 200 nmol/cm^2) | inhibition of landing on treated netting (in words) (A. gambiae females) | Mean Landings/5 minutes (A. gambiae females; [4]) [Landings/5 minutes] | Mean Landings/5 minutes (A. gambiae females; netting treated with 57 μg/cm^2 (300 nmol/cm^2)) [Landings/5 minutes] | EAG response of antenna [2] | repellence of sand flies from the warm body (in words) ([1]; 20 and 200 nmol/cm^2) | Mean Landings/5 minutes (A. gambiae females; netting treated with 76 μg/cm^2 (500 nmol/cm^2)) [Landings/5 minutes] | % affected ticks [3] [%]
CCN(CC)C(=O)c1cccc(C)c1 [DEET, N,N-diethyl-3-methylbenzamide, reference compound] | 6 | 5 | clearly inhibited | 0 | 0 |  |  |  | 
CC(C)c1ccc(CO)cc1 [cumin alcohol] |  |  |  |  |  | capable of triggering EAG responses |  |  | 
Cc1ccc(C(C)C)cc1O [carvacrol, 5-isopropyl-2-methylphenol] | 23 | 1 | clearly inhibited | 0 |  | capable of triggering EAG responses | as effective as DEET at 20 nmol/cm^2 | 0 | 75
